{"source": "ChEMBL document CHEMBL1201862", "about": "“PubChem BioAssay data set” (2004)", "key": {"[1]": {"assay": "Late stage counterscreen for inhibitors of Trypanosoma brucei methionyl tRNA synthetase (MetRS): Luminescence-based cell-based high throughput dose response assay to identify compounds that are cytotoxic to Jurkat human T lymphocyte cells.", "format": "functional"}, "[2]": {"system": "Streptococcus sp. 'group A'", "assay": "Streptococcus pyogenes SK(-)GAS viability under kanamycin – luminescence, BacTiterGlo, confirmation, counter-screen for streptokinase expression inhibitor project, dose response (AID 1900)", "format": "functional, organism-based"}, "[3]": {"target": "T1, Streptokinase A (Streptococcus pyogenes serotype M1, UniProt P10520)", "T1 sequence (P10520 whole entry)": "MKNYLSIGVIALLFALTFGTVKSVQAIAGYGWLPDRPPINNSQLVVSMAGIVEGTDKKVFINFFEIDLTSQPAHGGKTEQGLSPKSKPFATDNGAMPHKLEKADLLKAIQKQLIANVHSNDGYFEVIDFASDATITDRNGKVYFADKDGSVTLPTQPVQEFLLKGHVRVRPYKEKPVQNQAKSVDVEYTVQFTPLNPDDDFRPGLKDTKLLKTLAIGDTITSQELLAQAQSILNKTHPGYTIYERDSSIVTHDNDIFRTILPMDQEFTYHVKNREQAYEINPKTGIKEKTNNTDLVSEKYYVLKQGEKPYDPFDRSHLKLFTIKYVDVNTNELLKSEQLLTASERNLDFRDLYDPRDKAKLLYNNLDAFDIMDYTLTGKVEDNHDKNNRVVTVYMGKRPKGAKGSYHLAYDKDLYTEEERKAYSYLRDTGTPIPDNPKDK", "assay": "viability-normalized secreted streptokinase activity reduction – plasminogen activation absorbance, OD405, dose response (AID 1914);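 also: secreted streptokinase activity via plasminogen activation per viability signal from cell pellet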", "format": "functional, Streptococcus pyogenes M1 GAS"}, "[4]": {"system": "Streptococcus", "assay": "GAS UMAA2166 growth inhibition – luminescence, BacTiterGlo, counter-screen for streptokinase expression inhibitor project, dose response (AID 1915);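 also: potency for reduction of bacterial viability or growth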", "format": "functional, organism-based"}, "[5]": {"target": "T2, Caspase-3 (Homo sapiens, UniProt P42574)", "T2 sequence (P42574 whole entry)": "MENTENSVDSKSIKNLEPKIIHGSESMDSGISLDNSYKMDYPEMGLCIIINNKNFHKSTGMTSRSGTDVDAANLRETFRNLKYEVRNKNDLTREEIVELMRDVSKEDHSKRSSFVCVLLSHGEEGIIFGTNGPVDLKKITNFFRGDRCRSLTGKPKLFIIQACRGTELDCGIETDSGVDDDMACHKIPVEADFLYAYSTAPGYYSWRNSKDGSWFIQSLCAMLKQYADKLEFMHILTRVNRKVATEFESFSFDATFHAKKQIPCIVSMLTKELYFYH", "format": "functional"}, "[6]": {"target": "T3, Sentrin-specific protease 7 (Homo sapiens, UniProt Q9BQF6)", "T3 sequence (Q9BQF6 whole entry)": "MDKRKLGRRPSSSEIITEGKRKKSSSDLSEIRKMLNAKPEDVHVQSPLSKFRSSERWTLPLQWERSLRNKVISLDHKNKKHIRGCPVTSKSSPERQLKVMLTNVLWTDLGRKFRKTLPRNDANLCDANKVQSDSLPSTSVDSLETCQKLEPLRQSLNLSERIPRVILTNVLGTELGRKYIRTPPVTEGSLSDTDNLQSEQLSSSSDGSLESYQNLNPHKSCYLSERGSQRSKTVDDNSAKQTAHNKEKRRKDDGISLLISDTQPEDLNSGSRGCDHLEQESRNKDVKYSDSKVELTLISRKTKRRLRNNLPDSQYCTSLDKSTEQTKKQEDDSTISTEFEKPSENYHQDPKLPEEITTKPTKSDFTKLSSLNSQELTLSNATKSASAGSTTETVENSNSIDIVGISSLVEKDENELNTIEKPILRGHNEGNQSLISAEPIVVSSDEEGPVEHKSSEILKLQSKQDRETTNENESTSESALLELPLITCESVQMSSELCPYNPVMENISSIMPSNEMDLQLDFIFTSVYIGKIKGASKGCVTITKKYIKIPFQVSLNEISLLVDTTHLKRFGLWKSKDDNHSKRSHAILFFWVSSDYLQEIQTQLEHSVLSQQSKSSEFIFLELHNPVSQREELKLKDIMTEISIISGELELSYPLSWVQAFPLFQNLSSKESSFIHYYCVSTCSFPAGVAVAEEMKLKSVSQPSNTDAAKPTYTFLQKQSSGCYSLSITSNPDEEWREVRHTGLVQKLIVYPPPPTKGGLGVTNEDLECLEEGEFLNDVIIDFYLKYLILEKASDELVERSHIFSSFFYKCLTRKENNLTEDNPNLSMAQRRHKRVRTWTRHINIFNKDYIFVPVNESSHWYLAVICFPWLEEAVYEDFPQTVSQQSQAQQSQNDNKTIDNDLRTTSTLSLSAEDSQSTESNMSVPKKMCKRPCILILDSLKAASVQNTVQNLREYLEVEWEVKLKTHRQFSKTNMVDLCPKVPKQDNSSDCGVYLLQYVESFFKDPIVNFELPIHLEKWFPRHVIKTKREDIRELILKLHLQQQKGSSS", "format": "functional"}, "[7]": {"target": "T4, Sentrin-specific protease 6 (Homo sapiens, UniProt Q9GZR1)", "T4 sequence (Q9GZR1 whole entry)": "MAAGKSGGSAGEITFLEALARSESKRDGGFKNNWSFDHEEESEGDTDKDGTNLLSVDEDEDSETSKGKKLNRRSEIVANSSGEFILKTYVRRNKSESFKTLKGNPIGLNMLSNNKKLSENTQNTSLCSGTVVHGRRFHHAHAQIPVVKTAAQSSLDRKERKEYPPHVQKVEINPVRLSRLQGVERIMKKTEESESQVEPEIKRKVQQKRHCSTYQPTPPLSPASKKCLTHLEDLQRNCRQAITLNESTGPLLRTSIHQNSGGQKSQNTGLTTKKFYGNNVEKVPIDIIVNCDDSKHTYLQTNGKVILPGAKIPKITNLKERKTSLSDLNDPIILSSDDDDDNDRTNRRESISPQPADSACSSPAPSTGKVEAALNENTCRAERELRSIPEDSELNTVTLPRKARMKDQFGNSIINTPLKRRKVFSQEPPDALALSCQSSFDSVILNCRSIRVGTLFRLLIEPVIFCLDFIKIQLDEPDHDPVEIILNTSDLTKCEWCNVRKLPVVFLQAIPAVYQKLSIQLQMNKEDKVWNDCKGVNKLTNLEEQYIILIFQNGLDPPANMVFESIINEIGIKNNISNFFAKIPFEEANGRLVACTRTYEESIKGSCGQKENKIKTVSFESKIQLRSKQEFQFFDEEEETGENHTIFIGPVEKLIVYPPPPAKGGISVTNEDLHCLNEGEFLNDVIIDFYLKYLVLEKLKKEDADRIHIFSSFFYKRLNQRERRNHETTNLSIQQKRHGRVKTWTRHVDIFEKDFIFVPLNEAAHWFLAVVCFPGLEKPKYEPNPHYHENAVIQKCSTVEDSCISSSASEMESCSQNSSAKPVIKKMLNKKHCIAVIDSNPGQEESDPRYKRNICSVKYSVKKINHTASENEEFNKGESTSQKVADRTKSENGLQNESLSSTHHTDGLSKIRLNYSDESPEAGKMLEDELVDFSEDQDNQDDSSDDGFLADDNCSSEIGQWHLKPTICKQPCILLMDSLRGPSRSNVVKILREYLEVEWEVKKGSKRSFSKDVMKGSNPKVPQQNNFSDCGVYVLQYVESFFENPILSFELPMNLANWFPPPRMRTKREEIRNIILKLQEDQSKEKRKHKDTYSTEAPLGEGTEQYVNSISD", "format": "functional"}, "[8]": {"target": "T5, Sentrin-specific protease 8 (Homo sapiens, UniProt Q96LD8)", "T5 sequence (Q96LD8 whole entry)": "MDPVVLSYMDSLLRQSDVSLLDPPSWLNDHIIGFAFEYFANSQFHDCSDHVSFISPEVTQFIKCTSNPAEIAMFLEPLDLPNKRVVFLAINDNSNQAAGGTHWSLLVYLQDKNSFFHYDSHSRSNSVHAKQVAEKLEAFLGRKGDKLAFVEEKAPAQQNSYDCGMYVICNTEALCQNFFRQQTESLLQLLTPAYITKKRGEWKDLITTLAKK", "format": "functional"}, "[9]": {"target": "T6, Oxysterols receptor LXR-beta (Homo sapiens, UniProt P55055)", "T6 sequence (P55055 whole entry)": "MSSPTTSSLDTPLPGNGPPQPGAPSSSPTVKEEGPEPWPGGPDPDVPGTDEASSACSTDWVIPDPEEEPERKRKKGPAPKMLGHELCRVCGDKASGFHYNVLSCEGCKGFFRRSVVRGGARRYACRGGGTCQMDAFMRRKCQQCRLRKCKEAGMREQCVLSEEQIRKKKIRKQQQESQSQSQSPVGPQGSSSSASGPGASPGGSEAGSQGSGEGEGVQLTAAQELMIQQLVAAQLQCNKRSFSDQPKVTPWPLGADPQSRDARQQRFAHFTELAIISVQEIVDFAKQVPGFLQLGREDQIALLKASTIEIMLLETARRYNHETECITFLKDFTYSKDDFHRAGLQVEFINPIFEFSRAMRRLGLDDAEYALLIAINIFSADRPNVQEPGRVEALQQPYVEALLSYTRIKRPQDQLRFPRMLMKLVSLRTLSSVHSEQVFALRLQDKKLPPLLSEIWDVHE", "format": "functional, cell-based"}, "[10]": {"assay": "reduction of Shn3 3'UTR-driven luciferase in osteoblasts – cell-based, Clone20 osteoblasts, firefly luciferase, cherry-picked, dose response (AID 624132)", "format": "functional"}, "[11]": {"assay": "loss of viability in HepG2 cells – cell-based, CellTiter-Glo, cherry-picked, cytotoxicity control for Shn3 inhibitor project, dose response (AID 624134)", "format": "functional"}, "[12]": {"assay": "non-specific 3'UTR reporter inhibition in Clone20-Shn3RL – cell-based, Renilla luciferase, cherry-picked, counter-screen for Shn3 inhibitor project, dose response (AID 624133)", "format": "functional"}, "[13]": {"target": "COUP transcription factor 2 (Homo sapiens, UniProt P24468)", "sequence (P24468 whole entry)": "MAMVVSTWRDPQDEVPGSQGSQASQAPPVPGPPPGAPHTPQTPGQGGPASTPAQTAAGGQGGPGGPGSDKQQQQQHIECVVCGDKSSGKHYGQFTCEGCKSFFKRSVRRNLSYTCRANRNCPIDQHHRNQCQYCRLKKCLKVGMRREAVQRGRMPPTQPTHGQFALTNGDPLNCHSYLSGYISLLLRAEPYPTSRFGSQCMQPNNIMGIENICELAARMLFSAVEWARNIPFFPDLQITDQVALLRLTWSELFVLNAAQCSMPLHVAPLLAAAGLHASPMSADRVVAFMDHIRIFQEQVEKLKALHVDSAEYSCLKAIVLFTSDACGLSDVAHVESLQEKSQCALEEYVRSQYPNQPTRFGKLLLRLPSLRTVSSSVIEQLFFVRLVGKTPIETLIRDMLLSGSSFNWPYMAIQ", "assay": "Luminescence-based cell-based high throughput dose response assay to identify inhibitors of COUP-TFII (NR2F2).", "format": "functional"}}, "note": "Calls of active or inactive are those of the source."}
{"smiles": "O=C(CC=NOCc1ccc([N+](=O)[O-])cc1)Nc1ccc(Cl)cc1", "values": [{"measurement": "IC50", "setting": "[1]", "result": "> 83.3 µM (inactive)"}]}
{"smiles": "O=c1c2cc(-c3ccccc3)sc2nc2n1CCC2", "values": [{"measurement": "EC50", "setting": "[2]", "result": "11.3 µM (active)"}, {"measurement": "EC50", "setting": "[3]", "result": "> 150 µM (not active)"}, {"measurement": "EC50", "setting": "[4]", "result": "> 150 µM (not active)"}, {"measurement": "IC50", "setting": "[5]", "result": "5.94 µM (active)"}, {"measurement": "IC50", "setting": "[6]", "result": "6.17 µM (active)"}, {"measurement": "IC50", "setting": "[7]", "result": "20.8 µM (active)"}, {"measurement": "IC50", "setting": "[8]", "result": "10.9 µM (active)"}, {"measurement": "EC50", "setting": "[9]", "result": "> 67.5 µM (inactive)"}]}
{"smiles": "OC[C@@H]1CN(Cc2ccc(-c3ccccc3)cc2)C[C@H](n2cnc3c(NCc4ccc(F)cc4)ncnc32)O1", "values": [{"measurement": "AC50", "setting": "[10]", "result": "1.58 µM (active)"}, {"measurement": "AC50", "setting": "[11]", "result": "64.5 µM (active)"}, {"measurement": "AC50", "setting": "[12]", "result": "4.44 µM (active)"}, {"measurement": "IC50", "setting": "[13]", "result": "8.22 µM (active)"}]}
